Assay results reported in US10195189B2, “2-phenethenyltetrahydro isoquinolines useful as anti-HIV compounds” (priority 2014, dated 2019).
pEC50: −log10 of the molar value.

The compounds below were run on HIV-1 NL4-3 viral clone expressing Renilla luciferase (assay: microbe, parasite or virus in culture). Conditions: Human immunodeficiency virus 1, NL43, MT2, 96 h.
Format: cell-based
Experimental: Protocol for MT-2 Spread Assay
The present assay was used to screen candidate antiviral compounds by quantification of virus spread and production over several rounds of infection in vitro. MT-2, a HIV-1 permissive human T-cell line, was seeded in microtiter plates and was simultaneously treated with serially diluted compound and inoculated with a HIV-1 NL4-3 viral clone engineered to express Renilla luciferase in place of Net Following treatment, the culture was incubated for 96 hours. After the incubation, media was collected and used to estimate relative infectivity on the indicator cell line, TZM-bl. Additionally, viral spread was quantified by measuring luciferase activity via a commercially available luciferase substrate. In parallel, MT-2 cells were seeded and inoculated with mock virus in the presence of serially diluted compound. Compound toxicity was quantified 96 hours after treatment with AlamarBlue.
MT-2 (NIH Aids reagent program 237) cells were grown and maintained in an incubator at 37° C. with 5% CO2 using a basal medium of RPMI-1640 supplemented with 10% FBS. Cells were seeded in 100 μl at 2×10^4 cells/well in white walled 96-well microtiter plates. Candidate compounds were 3-fold serially diluted in the appropriate solvent. Solvent without compound was used as a no drug reference. Cells were inoculated at a multiplicity of 0.027 with an HIV-1 NL4-3 virus stock engineered to express Renilla luciferase in place of Net Diluted virus stock was first added to serially diluted compound. Compound and virus were delivered to cells in an equal volume (100 μl) and treated cultures were returned to the incubator for 96 hours. In parallel, plates for cytotoxicity estimates were prepared in the same way except cells were plated in clear walled 96-well microtiter plates and were mock infected.
At 96 hours post infection, 100 μl virus containing culture supernatant was collected from the treated and infected cultures and serially diluted in DMEM supplemented with 10% FBS, 1% sodium pyruvate, and 20 μg/ml DEAE dextran. One day prior, TZM-bl (ATCC PTA-5659) were cultured in basal medium of DMEM supplemented with 10% FBS and 1% sodium pyruvate and seeded at 7.5×10^3 cells/well in black walled 96-well microtiter plates. Diluted virus containing culture supernatant was transferred to TZM-bl cultures and incubated for 48 hours at 37° C. with 5% CO2. Infected TZM-bl cultures were fixed for 5 minutes with a 1% formaldehyde/0.2% gluteraldehyde/PBS solution then washed three times with PBS. Fixed cultures were incubated at 37° C. for 25 minutes with a 200 μg/ml MUG (4-Methylumbelliferyl β-D-[…])/DMEM solution. The reaction was stopped with an equal volume of 1M sodium carbonate and read at 360, 449 nm on fluorescence plate reader (Biotek).
At 96 hours post infection, 100 μl of culture supernatant was removed from the treated and infected cultures and EnduRen live cell substrate (Promega) was added at a final concentration 1.3 μg/ml. Cells were incubated for 1.5 hours at 37° C. with 5% CO2 then read on a luminescence plate reader (Biotek).
For all assays, data was imported into Accelrys Assay Explorer 3.3. In Assay Explorer, % inhibition (antiviral or cytotoxicity) was calculated using the solvent control as a reference by the following equation: 1−(SignalCompound/SignalReference). The % Inhibition and compound concentration data was fitted using the following 4-parameter logistic model (Assay Explorer model 42):
[formula] where X is compound concentration, Y is % inhibition, D is the maximum % Inhibition (constrained to 100%), C is IC50 value or inflection point, B is the hill slope, and A is the minimum % inhibition (constrained to 0%). The IC50 value is reported as the EC50 or CC50 depending on the assay endpoint. EC50 represents the effective concentration at which virus replication is inhibited by 50 percent. CC50 represents the concentration that results in the death of 50 percent of the host cells. […]

`COCCOc1ccccc1/C=C/C1NCCc2cc(OCc3ccccc3)c(OC)cc21` (centres unmarked) [DE, (E)-6-(benzyloxy)-7-methoxy-1-(2-(2-methoxyethoxy)styryl)-1,2,3,4-tetrahydroisoquinoline] and `COCCCCOc1cc(OC)ccc1/C=C/C1NCCc2cc(OCc3ccccc3)c(OC)cc21` (centres unmarked) [Example AI, (E)-6-(benzyloxy)-7-methoxy-1-(4-methoxy-2-(4-methoxybutoxy)styryl)-1,2,3,4-tetrahydroisoquinoline] are within 0.2 log units of each other in pEC50: 5.84 for the first, 5.82 for the second.

First: COc1cc2c(cc1OCc1ccccc1)CCNC2/C=C/c1cccc(C(=O)O)c1 (centres unmarked) [ER, 3-[(E)-2-(6-benzyloxy-7-methoxy-1,2,3,4-tetrahydroisoquinolin-1-yl)vinyl]benzoic acid]
Second: COc1ccc(/C=C/C2NCCc3cc(OCc4ccccc4)c(OC)cc32)cc1C (centres unmarked) [EI, 6-Benzyloxy-7-methoxy-1-[(E)-2-(4-methoxy-3-methyl-phenyl)vinyl]-1,2,3,4-tetrahydroisoquinoline]
The pEC50 of the first is 1.47 log units lower: 5.00 for the first, 6.47 for the second.

Compared with `CCCCOc1ccc(/C=C/C2NCCc3cc(OCc4ccccc4)c(OC)cc32)cc1OC` (centres unmarked) [BD, 6-Benzyloxy-1-[(E)-2-(4-butoxy-3-methoxy-phenyl)vinyl]-7-methoxy-1,2,3,4-tetrahydroisoquinoline], `COc1ccc(/C=C/C2NCCc3cc(OCc4ccccc4)c(OC)cc32)cc1Br` (centres unmarked) [AR, 6-Benzyloxy-1-[(E)-2-(3-bromo-4-methoxy-phenyl)vinyl]-7-methoxy-1,2,3,4-tetrahydroisoquinoline] is 0.29 log units lower in pEC50: 6.39 for the first, 6.10 for the second.

`COc1cc(C)c(/C=C/C2NCCc3cc(OCc4ccccc4)c(OC)cc32)cc1OCCCC(=O)O` (centres unmarked) [BO, 4-[5-[(E)-2-(B-benzyloxy-7-methoxy-1,2,3,4-tetrahydroisoquinolin-1-yl)vinyl]-2-methoxy-4-methyl-phenoxy]butanoic acid] and `COc1cc(C)c(/C=C/C2NCCc3cc(OCc4ccccc4)c(OC)cc32)cc1C` (centres unmarked) [BV, 6-Benzyloxy-7-methoxy-1-[(E)-2-(4-methoxy-2,5-dimethyl-phenyl)vinyl]-1,2,3,4-tetrahydroisoquinoline] are within 0.2 log units of each other in pEC50: 6.63 for the first, 6.52 for the second.

`COc1cc2c(cc1OCc1ccccc1)CCNC2/C=C/c1ccc(-c2cncnc2)cc1` (centres unmarked) [DS, 6-(Benzyloxy)-7-methoxy-1-[(E)-2-[4-(pyrimidin-5-yl)phenyl]ethenyl]-1,2,3,4-tetrahydroisoquinoline] and `COc1cc2c(cc1OCc1ccccc1)CCNC2/C=C/c1ccc(-n2cncn2)cc1` (centres unmarked) [DT, 6-(Benzyloxy)-7-methoxy-1-[(E)-2-[4-(1H-1,2,4-triazol-1-yl)phenyl]ethenyl]-1,2,3,4-tetrahydroisoquinoline] are within 0.2 log units of each other in pEC50: 6.94 for the first, 6.80 for the second.

First: COc1cc2c(cc1OCc1ccccc1)CCNC2/C=C/c1ccccc1N1CCOCC1 (centres unmarked) [DH, (E)-4-(2-(2-(6-(benzyloxy)-7-methoxy-1,2,3,4-tetrahydroisoquinolin-1-yl)vinyl)phenyl)morpholine]
Second: COc1cc2c(cc1OCc1ccccc1)CCNC2/C=C/c1cccc2c1OCCC2 (centres unmarked) [CF, 6-Benzyloxy-1-[(E)-2-chroman-8-ylvinyl]-7-methoxy-1,2,3,4-tetrahydroisoquinoline]
The pEC50 of the first is 1.03 log units lower: 5.28 for the first, 6.31 for the second. The second is the more potent here.

Compared with `COc1cc2c(cc1OCc1ccccc1)CCNC2/C=C/c1ccc(S(C)(=O)=O)cc1` (centres unmarked) [BZ, 6-Benzyloxy-7-methoxy-1-[(E)-2-(4-methylsulfonylphenyl)vinyl]-1,2,3,4-tetrahydroisoquinoline], `CCN1CCN(c2ccc(/C=C/C3NCCc4cc(OCc5ccccc5)c(OC)cc43)cc2)CC1` (centres unmarked) [DO, (E)-6-(benzyloxy)-1-(4-(4-ethylpyrazin-1-yl)styryl)-7-methoxy-1,2,3,4-tetrahydroisoquinoline] is 0.30 log units higher in pEC50: 6.00 for the first, 6.30 for the second. The second is the more potent here.

Going from `COc1cc2c(cc1OCc1ccccc1)CCNC2/C=C/c1ccc(OC)c(C(F)(F)F)c1` (centres unmarked) [CY, (E)-6-(Benzyloxy)-7-methoxy-1-(4-methoxy-3-(trifluoromethyl)styryl)-1,2,3,4-tetrahydroisoquinoline] to `COc1ccc(/C=C/C2NCCc3cc(OCc4ccccc4)c(OC)cc32)c(F)c1` (centres unmarked) [BR, 6-Benzyloxy-1-[(E)-2-(2-fluoro-4-methoxy-phenyl)vinyl]-7-methoxy-1,2,3,4-tetrahydroisoquinoline], the pEC50 falls from 6.16 to 5.94 (0.22 log units). The first is the more potent here.

Compared with `COc1cc(C)c(/C=C/C2NCCc3cc(OCc4ccccc4)c(OC)cc32)c(C)c1` (centres unmarked) [BA, 6-Benzyloxy-7-methoxy-1-[(E)-2-(4-methoxy-2,6-dimethyl-phenyl)vinyl]-1,2,3,4-tetrahydroisoquinoline], `COc1cc2c(cc1OCc1ccccc1)CCNC2/C=C/c1cc(C(C)C)c(OC)cc1C` (centres unmarked) [BW, 6-Benzyloxy-1-[(E)-2-(5-isopropyl-4-methoxy-2-methyl-phenyl)vinyl]-7-methoxy-1,2,3,4-tetrahydroisoquinoline] is 0.22 log units lower in pEC50: 6.30 for the first, 6.08 for the second.

Compared with `COc1cc(C)c(/C=C/C2c3cc(OC)c(OCc4ccccc4)cc3CCN2C(=O)NC(C)(C)C)cc1OCc1ccccc1` (centres unmarked) [Example O, 6-benzyloxy-1-[(E)-2-(5-benzyloxy-4-methoxy-2-methyl-phenyl)vinyl]-N-tert-butyl-7-methoxy-3,4-dihydro-1H-isoquinoline-2-carboxamide], `COc1cc(C)c(/C=C/C2c3cc(OC)c(OCc4ccccc4)cc3CCN2C)cc1OCc1ccccc1` (centres unmarked) [Example E, 6-Benzyloxy-1-[(E)-2-(5-benzyloxy-4-methoxy-2-methyl-phenyl)vinyl]-7-methoxy-2-methyl-3,4-dihydro-1H-isoquinoline] is 0.63 log units lower in pEC50: 5.70 for the first, 5.07 for the second. The first is the more potent here.

Going from `COc1cc2c(cc1OCc1ccccc1)CCNC2/C=C/c1cn(C)c2ncccc12` (centres unmarked) [DP] to `COc1cc2c(cc1OCc1ccccc1)CCNC2/C=C/c1ccc(N(C)C)cc1C` (centres unmarked) [BG, 4-[(E)-2-(6-benzyloxy-7-methoxy-1,2,3,4-tetrahydroisoquinolin-1-yl)vinyl]-N,N,3-trimethyl-aniline], the pEC50 falls from 7.82 to 5.78 (2.04 log units). The first is the more potent here.

Compared with `COc1ccc(/C=C/C2NCCc3cc(OCc4ccccc4)c(OC)cc32)cc1Cn1ccnc1C` (centres unmarked) [EN, 6-Benzyloxy-7-methoxy-1-[(E)-2-[4-methoxy-3-[(2-methylimidazol-1-yl)methyl]phenyl]vinyl]-1,2,3,4-tetrahydroisoquinolin], `COc1cc(/C=C/C2NCCc3cc(OC)c(OCc4ccccc4)cc32)ccc1OCc1ccccc1` (centres unmarked) [Example S, 7-benzyloxy-1-[(E)-2-(4-benzyloxy-3-methoxy-phenyl)vinyl]-6-methoxy-1,2,3,4-tetrahydroisoquinoline] is 0.72 log units lower in pEC50: 6.72 for the first, 6.00 for the second. The first is the more potent here.

Going from `COc1ccc(/C=C/C2NCCc3cc(OCc4ccccc4)c(OC)cc32)c(OC)c1` (centres unmarked) [AV, 6-Benzyloxy-1-[(E)-2-(2,4-dimethoxyphenyl)vinyl]-7-methoxy-1,2,3,4-tetrahydroisoquinoline] to `COc1cc(Cl)c(/C=C/C2NCCc3cc(OCc4ccccc4)c(OC)cc32)cc1OCc1ccccc1` (centres unmarked) [Example AC, 6-benzyloxy-1-[(E)-2-(5-benzyloxy-2-chloro-4-methoxy-phenyl)vinyl]-7-methoxy-1,2,3,4-tetrahydroisoquinoline], the pEC50 rises from 6.85 to 7.06 (0.21 log units). The second is the more potent here.

Compared with `COc1cc(C)c(/C=C/C2=NCCc3cc(OCc4ccccc4)c(OC)cc32)cc1OCc1ccccc1` [Example AE, 6-benzyloxy-1-[(E)-2-(5-benzyloxy-4-methoxy-2-methyl-phenyl)vinyl]-7-methoxy-3,4-dihydroisoquinoline], `COc1cc2c(cc1OCc1ccccc1)CCNC2/C=C/c1cccc(-c2ccncc2)c1` (centres unmarked) [DQ, 6-(Benzyloxy)-7-methoxy-1-[(E)-2-[3-(pyridin-4-yl)phenyl]ethenyl]-1,2,3,4-tetrahydroisoquinoline] is 0.54 log units higher in pEC50: 6.36 for the first, 6.90 for the second. The second is the more potent here.

Work on `COc1cc2c(cc1OCc1ccccc1)CCNC2/C=C/c1ccc2c(c1)OC(F)(F)O2` (centres unmarked) [DF, (E)-6-(benzyloxy)-1-(2-(2,2-difluorobenzo[d][1,3]dioxol-5-yl)vinyl)-7-methoxy-1,2,3,4-tetrahydroisoquinoline] yielded a pEC50 of 5.26.
